Drawing on PubChem BioAssay AID330 (DTP/NCI, 2004), this text covers T/C for 21 compounds.

Values joined by “and” are separate entries in the source; they are usually repeats but may differ in a detail not shown here. Identical values can stand only once. Toxic doses and inconclusive results are not listed.

The assay relates to P388 leukemia ip, CD2F1 mice, survival T/C. Nature of the assay: NCI In Vivo Anticancer Drug Screen. Data for tumor model P388 Leukemia (intraperitoneal) in CD2F1 (CDF1) mice. As to conditions: endpoint: median survival time, higher = longer survival. In a few lines:
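Mice carrying the transplanted tumor received test compound or vehicle. Survival was recorded in each group, and the value is the treated-group measurement divided by that of the vehicle-treated control group.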

Setting [1] is: dose: 50.0 mg/kg/injection, schedule: Q01DX005 (ip), vehicle: saline with Tween-80.
Where [2] appears, read: dose: 100.0 mg/kg/injection, schedule: Q01DX005 (ip), vehicle: saline with Tween-80.
Setting [3] is: dose: 6.25 mg/kg/injection, schedule: Q01DX005 (ip), vehicle: Klucel (hydroxypropylcellulose) (HPC).
Where [4] appears, read: dose: 12.5 mg/kg/injection, schedule: Q01DX005 (ip), vehicle: Klucel (hydroxypropylcellulose) (HPC).
[5] abbreviates: dose: 25.0 mg/kg/injection, schedule: Q01DX005 (ip), vehicle: Klucel (hydroxypropylcellulose) (HPC).
Setting [6] is: dose: 50.0 mg/kg/injection, schedule: Q01DX005 (ip), vehicle: Klucel (hydroxypropylcellulose) (HPC).
Where [7] appears, read: dose: 100.0 mg/kg/injection, schedule: Q01DX005 (ip), vehicle: Klucel (hydroxypropylcellulose) (HPC).
Setting [8] is: dose: 200.0 mg/kg/injection, schedule: Q01DX005 (ip), vehicle: saline with Tween-80.
Setting [9] is: dose: 50.0 mg/kg/injection, schedule: Q01DX009 (ip), vehicle: saline.
Where [10] appears, read: dose: 100.0 mg/kg/injection, schedule: Q01DX009 (ip), vehicle: saline.

As for `NS(=O)(=O)c1ccc(NC(=S)Nc2ccccc2C(F)(F)F)cc1`, the T/C is 92 % of control (dose: 50.0 mg/kg/injection, schedule: Q01DX009 (ip), vehicle: gum acacia); 109 % of control (dose: 100.0 mg/kg/injection, schedule: Q01DX009 (ip), vehicle: gum acacia); 100 % of control (dose: 200.0 mg/kg/injection, schedule: Q01DX009 (ip), vehicle: gum acacia).

Take `O=C1CS(=O)(=O)C(c2ccccc2F)N1N1C(=O)CS(=O)(=O)C1c1ccccc1F` (stereo unspecified): the T/C by setting is: (dose: 15.0 mg/kg/injection, schedule: Q01DX005 (ip), vehicle: saline with Tween-80) 98 % of control and 87 % of control; (dose: 30.0 mg/kg/injection, schedule: Q01DX005 (ip), vehicle: saline with Tween-80) 89 % of control; (dose: 60.0 mg/kg/injection, schedule: Q01DX005 (ip), vehicle: saline with Tween-80) 87 % of control and 89 % of control.

As to `COc1c(OP2(=S)OCC(C)(C)CO2)cnn(C2CCCCC2)c1=O`, the T/C is, setting by setting: under setting [1], 89 % of control; under setting [2], 88 % of control.

For `CN(C)c1ccc(C(=C2C=CC(=Nc3ccccc3)c3ccccc32)c2ccc(N(C)C)cc2)cc1`, the T/C was 100 % of control and 101 % of control (dose: 3.12 mg/kg/injection, schedule: Q01DX005 (ip), vehicle: Klucel (hydroxypropylcellulose) (HPC)); 100 % of control and 104 % of control and 112 % of control under setting [3]; 111 % of control and 114 % of control and 120 % of control under setting [4]; 115 % of control and 118 % of control under setting [5].

Turning to `c1ccc(-c2nn(-c3ccccc3)[n+](-c3ccccc3-c3ccccc3)n2)cc1`, the T/C was 109 % of control and 114 % of control (dose: 5.0 mg/kg/injection, schedule: Q01DX009 (ip), vehicle: saline); 120 % of control (dose: 10.0 mg/kg/injection, schedule: Q01DX009 (ip), vehicle: saline); 121 % of control (dose: 20.0 mg/kg/injection, schedule: Q01DX009 (ip), vehicle: saline).

Take `N#CC1CCCC(C#N)N1CN1C(C#N)CCCC1C#N` (stereo unspecified): the T/C under setting [6] is 97 % of control and the T/C under setting [7] is 88 % of control.

`CCC(C)C1NC(=O)C(NC(=O)c2c3nc4c(C(=O)NC5C(=O)NC(C(C)CC)C(=O)N6CCCC6C(=O)N(C)CC(=O)N(C)C(C(C)C)C(=O)OC5C)ccc(C)c4oc-3c(C)c(=O)c2Cl)C(C)OC(=O)C(C(C)C)N(C)C(=O)CN(C)C(=O)C2CCCN2C1=O` (stereo unspecified): the T/C by setting is: (dose: 0.05 mg/kg/injection, schedule: Q01DX009 (ip), vehicle: water) 92 % of control; (dose: 0.1 mg/kg/injection, schedule: Q01DX009 (ip), vehicle: water) 96 % of control; (dose: 0.2 mg/kg/injection, schedule: Q01DX009 (ip), vehicle: water) 99 % of control; (dose: 0.4 mg/kg/injection, schedule: Q01DX009 (ip), vehicle: water) 102 % of control and 111 % of control; (dose: 0.8 mg/kg/injection, schedule: Q01DX009 (ip), vehicle: water) 118 % of control; (dose: 3.2 mg/kg/injection, schedule: Q01DX009 (ip), vehicle: water) 155 % of control. The T/C (dose: 6.4 mg/kg/injection, schedule: Q01DX009 (ip), vehicle: water) is 174 % of control.

For the compound `CCOC(=O)c1cc(-c2ccccc2)c(=O)c(OC)nc1-c1ccccc1`, the T/C is 108 % of control (dose: 25.0 mg/kg/injection, schedule: Q01DX005 (ip), vehicle: saline with Tween-80) and 118 % of control under setting [1].

On to `Cc1cc(N)c(C)c2c1[nH]c1ccc(Br)cc12`, for which the T/C runs as follows: under setting [1], 94 % of control; under setting [2], 93 % of control; under setting [8], 89 % of control.

For the compound `CCO/C(C)=C(/C(C)=O)C(=O)NC1CCCCC1`, the T/C by setting is: (dose: 100.0 mg/kg/injection, schedule: Q01DX009 (ip), vehicle: saline with Tween-80) 95 % of control; (dose: 200.0 mg/kg/injection, schedule: Q01DX009 (ip), vehicle: saline with Tween-80) 90 % of control; (dose: 400.0 mg/kg/injection, schedule: Q01DX009 (ip), vehicle: saline with Tween-80) 90 % of control.

As for `CCCCC(CCCC)[N+](=O)[O-]`, the T/C was 108 % of control under setting [1], 110 % of control under setting [2] and 103 % of control under setting [8].

Regarding `CCCCCCCCCCCCCCCOc1cc(OC)ccc1-c1nnc(SC)s1`, the T/C under setting [9] was 100 % of control; the T/C under setting [10] was 91 % of control; the T/C (dose: 200.0 mg/kg/injection, schedule: Q01DX009 (ip), vehicle: saline) is 100 % of control.

On to `O=C(O)C1C(C(=O)O)C2C(=O)C=CC1N2Cc1ccccc1` (stereo unspecified), for which the T/C under setting [4] was 105 % of control; the T/C under setting [5] is 99 % of control and 116 % of control; the T/C under setting [6] is 112 % of control and 114 % of control and 115 % of control; the T/C under setting [7] was 103 % of control and 118 % of control and 122 % of control.

Take `NCC(O)c1cccc(C(F)(F)F)c1` (stereo unspecified): the T/C by setting is: under setting [9], 92 % of control; under setting [10], 100 % of control.

`COc1cc2c(cc1OC)-c1c(oc3c(CCC(C)C)c(O)ccc3c1=O)CO2`: the T/C under setting [3] is 99 % of control; the T/C under setting [4] was 92 % of control and 94 % of control; the T/C under setting [5] was 88 % of control and 94 % of control; the T/C under setting [6] was 86 % of control; the T/C under setting [7] was 86 % of control.

Turning to `CC(=O)CC(=O)N1CCN(C(=O)CC(C)=O)CC1`, the T/C is, setting by setting: (dose: 100.0 mg/kg/injection, schedule: Q04DX003 (ip), vehicle: saline) 104 % of control; (dose: 200.0 mg/kg/injection, schedule: Q04DX003 (ip), vehicle: saline) 100 % of control; (dose: 400.0 mg/kg/injection, schedule: Q04DX003 (ip), vehicle: saline) 100 % of control.

On to `CCOC(=O)N1C(=O)C=CC1=O`, for which the T/C runs as follows: (dose: 18.75 mg/kg/injection, schedule: Q01DX009 (ip), vehicle: saline with Tween-80) 106 % of control; (dose: 37.5 mg/kg/injection, schedule: Q01DX009 (ip), vehicle: saline with Tween-80) 104 % of control; (dose: 75.0 mg/kg/injection, schedule: Q01DX009 (ip), vehicle: saline with Tween-80) 105 % of control and 91 % of control; (dose: 150.0 mg/kg/injection, schedule: Q01DX009 (ip), vehicle: saline with Tween-80) 113 % of control.

`CC(=O)OCC1OC(n2cnc3c(=S)nc(N)[nH]c32)CC1OC(C)=O` (stereo unspecified): the T/C is, setting by setting: (dose: 1.25 mg/kg/injection, schedule: Q04DX003 (ip), vehicle: saline with Tween-80) 102 % of control; (dose: 2.5 mg/kg/injection, schedule: Q04DX003 (ip), vehicle: saline with Tween-80) 106 % of control; (dose: 5.0 mg/kg/injection, schedule: Q04DX003 (ip), vehicle: saline with Tween-80) 113 % of control and 123 % of control; (dose: 20.0 mg/kg/injection, schedule: Q04DX003 (ip), vehicle: saline with Tween-80) 156 % of control and 158 % of control and 159 % of control; (dose: 30.0 mg/kg/injection, schedule: Q04DX003 (ip), vehicle: saline with Tween-80) 174 % of control.

In the case of `COc1cc2cc3c4cc5c(cc4cc[n+]3c(C)c2cc1OC)OCO5` (tested in a mixture with another compound), the T/C (dose: 15.0 mg/kg/injection, schedule: Q04DX003 (ip), vehicle: saline) was 153 % of control.

As to `COc1ccc(C(O)(CCN2CCOCC2)c2ccc3c(c2)OCO3)cc1` (stereo unspecified), the T/C by setting is: under setting [6], 90 % of control; under setting [7], 91 % of control.

In the case of `c1ccc2c(c1)C1CC3N=NC1C23` (stereo unspecified), the T/C runs as follows: under setting [6], 105 % of control; under setting [7], 107 % of control.
